Reference: patent US20230003721A1, “MITOTHERAPEUTICS FOR THE TREATMENT OF BRAIN DISORDERS” (The University of Florida Research Foundation, Inc., priority 2019, published 2023)
pEC50: −log10 of the molar value. Where a name gives a salt, the structure may show the parent alone.

How the values were obtained:
[1] = system: primary neurons; assay: TMRM fluorescence assay of inner mitochondrial membrane potential (ΔΨm); details: for TMRM Primary: primary screen; for pEC50: read-out: TMRM-EC50; for Emax: read-out: TMRM (Effect-size)
Procedure: Mitochondrial dyes. To assay the electrochemical potential across the inner mitochondrial membrane of cultured cells, we used the cell-permeant dye tetramethylrhodamine methyl ester (TMRM). For co-localization studies with Mt-GFP, TMRM was used at 20 nM on DIV14 and incubated for 30 min prior to imaging. For the orthogonal screen of compounds, TMRM was added to primary neurons on DIV13 at 10 nM, one hr prior to pintooling selected compounds, and incubated for 24 hr. Cells were washed 2× with pre-warmed fresh feeding media without B27 before measurements with a plate reader.
(§1) A CLARIOstar (BMG LABTECH) microplate reader was used to measure fluorescence of TMRM and luminescence produced from the ATP.
(§2) Mitochondrial membrane potential (Δψm) and luminescence-based ATP assays. […] Changes of ΔΨm in each well were monitored using the mitochondrial-specific, fluorescent dye TMRM (tetramethyl rhodamine, methyl ester; Molecular Probes) and measured using a CLARIOstar plate reader. […] This concentration was used throughout our experiments. […] Wells in columns 1 and 24 were not loaded with TMRM; these served to measure background signal which was subtracted from the wells to which TMRM was added. To measure the total ATP levels in neurons we utilized the CellTiter-Glo® luminescence-based ATP assay (Promega). DIV13 primary neurons were cultured for 24 h with either DMSO carrier or compound treatment, followed by removing 55 μl culture medium from each well. Plates were maintained at room temperature for 25 m, and 25 μl of CellTiter-Glo® Reagent with the substrate luciferin was then added to each well (Promega). Plates were covered with aluminum foil and shaken vigorously on an orbital shaker for 10 m at 200 rpm and maintained at room temperature for an additional 2 m in dark before being read with the plate reader set to the luminescence mode.
Compound library and hit picking rules. We screened 2400 compounds from the MicroSource Spectrum library. […] FIGS. 13A-13E provide details of the assays used from which hit picking rules were made. In essence, the average fluorescence for each compound in the TMRM assay was determined and compared to the average fluorescence for compounds in the population on each assay plate to produce a Z-score. The Z-scores for each individual compound assayed across the four replicate plates was then averaged.

[2] = system: primary neurons; assay: CellTiter-Glo luminescence-based ATP assay; format: cell-based, mouse; details: for ATP: ATP orthogonal screen, 24 h; for pEC50: 15 concentrations from 6 nM to 100 uM; for Emax: read-out: ATP (Effect-size)
Procedure: Measurement of ATP production. The total amount of ATP produced by cultured primary neurons was measured by CellTiter-Glo Luminescent Cell Viability Assay (Promega). A recombinant luciferase enzyme catalyzed the mono-oxygenation of luciferin while hydrolyzing ATP produced by the cells and emitting light. We followed the manufacturer's protocol with primary neurons on DIV14.
as §1, §2
Compound library and hit picking rules. We screened 2400 compounds from the MicroSource Spectrum library. […] FIGS. 13A-13E provide details of the assays used from which hit picking rules were made. In essence, the average fluorescence for each compound in the TMRM assay was determined and compared to the average fluorescence for compounds in the population on each assay plate to produce a Z-score. The Z-scores for each individual compound assayed across the four replicate plates was then averaged. Because of significant well location effects (outer rows) on each assay plate (FIG. 13G), we selected primary hits as enhancing well fluorescence above the μplate by 3σplate for inner row wells (rows C-N, columns 3-22), and by 2.5σplate for outer row wells (rows A, B, O, P; columns 3-22) (FIG. 14C-D). […] All orthogonal assays employed inner wells of the 384-well plates.

[3] = maximal percent increase relative to in-plate DMSO controls, dose response
[4] = Mus musculus, Primary neuron, dose response
[5] = Mus musculus, Primary neuron, maximal percent increase relative to in-plate DMSO controls, dose response

Compound	TMRM Primary ([1]; 12.5 μM, 24 h)	TMRM Rescreen ([1]; 24 h)	ATP [2]	further results
CN(C)CCCN1c2ccccc2Sc2ccc(Cl)cc21 [chlorpromazine]	2.79 Z-scores	2.66 Z-scores	5.00 Z-scores	
CCN(CC)CCNc1ccc(CO)c2sc3ccccc3c(=O)c12 [hycanthone]	4.40 Z-scores	5.48 Z-scores	4.61 Z-scores	
OC(c1cc(C(F)(F)F)nc2c(C(F)(F)F)cccc12)C1CCCCN1 (centres unmarked) [mefloquine]	3.75 Z-scores	5.54 Z-scores	5.09 Z-scores	
CN1CCCC(n2nc(Cc3ccc(Cl)cc3)c3ccccc3c2=O)CC1 (centres unmarked) [azelastine hydrochloride]	7.06 Z-scores	6.13 Z-scores	5.30 Z-scores	
CCN(CC)CCOC(=O)C(c1ccccc1)c1ccccc1 [adiphenine hydrochloride]	3.05 Z-scores	3.21 Z-scores	4.95 Z-scores	
acetophenazine maleate	5.64 Z-scores	5.34 Z-scores	5.65 Z-scores	TMRM (Effect-size) [1, 3]: 17.5%; pEC50 ([1]; dose response, 15 concentrations from 6 nM to 100 uM): 5.94; pEC50 ([2]; dose response): 6.52; ATP (Effect-size) [2, 3]: 16.7%
CC(CN(C)C)CN1c2ccccc2CCc2ccccc21 (centres unmarked) [trimipramine maleate]	5.18 Z-scores	5.16 Z-scores	5.24 Z-scores	Emax ([1]; Mus musculus, Primary neuron): 20%; pEC50 ([1]; Mus musculus, Primary neuron): 6.44; pEC50 [2, 4]: 6.74; Emax [2, 5]: 16.4%
C=C[C@H]1CN2CC[C@H]1C[C@H]2[C@H](OC(=O)OCC)c1ccnc2ccc(OC)cc12 [quinine ethyl carbonate]	4.64 Z-scores	6.26 Z-scores	3.60 Z-scores	
Clc1ccc(CO/N=C(\Cn2ccnc2)c2ccc(Cl)cc2Cl)c(Cl)c1 [oxiconazole nitrate]	3.08 Z-scores	3.28 Z-scores	5.76 Z-scores	
O=C(Nc1ccccc1)OCC(CN1CCCCC1)OC(=O)Nc1ccccc1 (centres unmarked) [diperodon hydrochloride]	3.75 Z-scores	6.07 Z-scores	8.02 Z-scores	
CC(C)N1CCN(c2ccc(OCC3COC(Cn4cncn4)(c4ccc(Cl)cc4Cl)O3)cc2)CC1 (centres unmarked) [terconazole]	5.15 Z-scores	5.95 Z-scores	2.82 Z-scores	
CN[C@H]1CC[C@@H](c2ccc(Cl)c(Cl)c2)c2ccccc21 [sertraline hydrochloride]	3.42 Z-scores	4.15 Z-scores	4.82 Z-scores	
CN1CCN(C2=Nc3cc(Cl)ccc3Nc3ccccc32)CC1 [clozapine]	3.24 Z-scores	5.80 Z-scores	3.88 Z-scores	
COc1ccc(C(=O)/C=C/c2ccccc2)cc1 [4′-methoxychalcone]	3.42 Z-scores	1.48 Z-scores	3.97 Z-scores	
CN(C)CCC=C1c2ccccc2C=Cc2ccccc21 [cyclobenzaprine hydrochloride]	5.52 Z-scores	4.71 Z-scores	3.49 Z-scores	
CC(C)(C)NC[C@H](O)COc1ccccc1C1CCCC1 [penbutolol sulfate]	3.16 Z-scores	5.35 Z-scores	3.39 Z-scores	
C[N+]12CCC(CC1)C(OC(=O)C(O)(c1ccccc1)c1ccccc1)C2 (centres unmarked) [clidinium bromide]	2.49 Z-scores	4.11 Z-scores	6.21 Z-scores	Emax ([1]; Mus musculus, Primary neuron): 14.3%; pEC50 ([1]; Mus musculus, Primary neuron): 6.35; pEC50 [2, 4]: 6.38; Emax [2, 5]: 20.5%
CC(C)NCC(O)COc1cccc2ccccc12.Cl (racemic) [propranolol hydrochloride (+/−)]	4.03 Z-scores	3.07 Z-scores	5.06 Z-scores	

Compound	TMRM Primary ([1]; 12.5 μM, 24 h)	TMRM Rescreen ([1]; 24 h)	ATP [2]	further results
CCCCOc1cc(C(=O)NCCN(CC)CC)c2ccccc2n1 [dibucaine hydrochloride]	3.83 Z-scores	6.82 Z-scores	6.22 Z-scores	
CC(C)CCC[C@@H](C)[C@H]1CC[C@H]2[C@@H]3CC(=O)[C@H]4C[C@@H](O)CC[C@]4(C)[C@H]3CC[C@]12C [5alpha-cholestan-3beta-ol-6-one]	7.10 Z-scores	7.61 Z-scores	5.86 Z-scores	
COC(=O)C1=C(C)NC(C)=C(C(=O)OCCN(C)Cc2ccccc2)C1c1cccc([N+](=O)[O-])c1 (centres unmarked) [nicardipine hydrochloride]	4.22 Z-scores	−5.52 Z-scores	−3.75 Z-scores	
CN1[C@@H](CC(=O)c2ccccc2)CCC[C@H]1C[C@H](O)c1ccccc1 [lobeline hydrochloride]	6.62 Z-scores	6.75 Z-scores	3.67 Z-scores	
CCCOc1ccc(C(=O)OCCN(CC)CC)cc1N [proparacaine hydrochloride]	3.43 Z-scores	4.65 Z-scores	4.11 Z-scores	
Cc1ccc(C(=O)C(C)CN2CCCCC2)cc1 (centres unmarked) [tolperisone hydrochloride]	3.57 Z-scores	3.67 Z-scores	5.49 Z-scores	
N=c1ccn2c(n1)O[C@H]1[C@H](O)[C@@H](CO)O[C@H]12 [ancitabine hydrochloride]	3.04 Z-scores	1.36 Z-scores	0.14 Z-scores	
CN(C)CCOC(c1ccccc1)c1ccccc1.Cn1c(=O)c2[nH]c(Cl)nc2n(C)c1=O [dimenhydrinate]	3.98 Z-scores	4.31 Z-scores	4.94 Z-scores	
CCCCOc1ccc(OCCCN2CCOCC2)cc1 [pramoxine hydrochloride]	2.93 Z-scores	−4.72 Z-scores	−1.97 Z-scores	
O=C([O-])Cc1c[nH]cn1.[Na+] [imidazol-4-ylacetic acid sodium salt]	3.58 Z-scores	4.56 Z-scores	4.61 Z-scores	hit in TMRM primary screen when assayed at 4 h ([1]; 12.5 μM, 4 h): imidazol-4-ylacetic acid sodium salt*
C=C[C@@](C)(O)CC[C@H]1C(=C)C[C@H](OC(C)=O)[C@H]2C(C)(C)CCC[C@]12C [larixol acetate]	3.96 Z-scores	5.67 Z-scores	2.67 Z-scores	
COc1ccc2c(c1)CC[C@@H]1[C@@H]2CC[C@]2(C)[C@@H](O)CC[C@@H]12 [estradiol methyl ether]	3.74 Z-scores	3.55 Z-scores	4.80 Z-scores	
colistin sulfate	3.27 Z-scores	5.24 Z-scores	5.48 Z-scores	
CC(C)c1ccc2c(c1)CC[C@H]1[C@](C)(C(N)=O)CCC[C@]21C [dehydroabietamide]	3.42 Z-scores	5.12 Z-scores	4.15 Z-scores	
CC(C)(C)OO [Peroxide, tert-butyl hydroperoxide]				reduction of whole well TMRM fluorescence ([1]; 50 μM, 24 h, DIV14 neuronal cultures): ~40%
CN1CCC[C@@H]1CCO[C@](C)(c1ccccc1)c1ccc(Cl)cc1 [clemastine fumarate]	2.82 Z-scores	3.22 Z-scores		
CNCCC(Oc1ccc(C(F)(F)F)cc1)c1ccccc1 (centres unmarked) [fluoxetine hydrochloride]			3.70 Z-scores	
